The values below come from patent US20230113398A1, “INEXPENSIVE METAL-FREE ORGANIC REDOX FLOW BATTERY (ORBAT) FOR GRID-SCALE STORAGE” (UNIVERSITY OF SOUTHERN CALIFORNIA, priority 2013, published 2023).

In brackets after ≈: the same amount, converted by molar mass.

Data set [1] is described as follows: Properties of some common quinones (literature data, Conant and Fieser). It counts as physicochemical. An excerpt: In a variation as set forth above, the flow battery utilizes a first quinone and a second quinone. Quinones are known to undergo fast electrochemical transformations which are necessary for sustaining high discharge and charge rates in a battery. The facility of electrochemical transformation is characterized by the kinetic parameter termed exchange current density. […] In general, useful quinones are highly soluble in water, chemically stable in strongly acidic/basic solutions, capable of high cell voltage of about 1 V, roundtrip efficiency >80%, and high discharge rate. By selecting a first quinone and a second quinone that are far apart in electrode potential, the cell voltage can be maximized to 1 V. Moreover, the electrode potentials can be modified favorably by substituent groups on the quinones as set forth below. Based on data provided in Table 1 and 2 (J.B. Conant and […]. Am. Chem.

For data set [2] the following is noted: cited from earlier work.
A short description of data set [3]: Rotating disk electrode and cyclic voltammetry on glassy carbon, 1 mM compound in 1 M sulfuric acid. It counts as physicochemical. How it is done: Measurement of kinetic parameters and diffusion coefficients was conducted in a three-electrode cell consisting of a rotating glassy carbon disk working electrode, a platinum wire counter electrode, and a mercury/mercuric sulfate reference electrode (E° = +0.65 V). […] The solutions were de-aerated and kept under a blanket of argon gas throughout all the experiments. All measurements were conducted in the potentiodynamic mode (Versastat 300 potentiostat) at a scan rate of 5 mV s^-1 over a range of rotation rates (500 rpm to 3000 rpm). Impedance measurements were also made at each rotation rate. Cyclic voltammetry was conducted on a static glassy carbon electrode at a scan rate of 50 mV s^-1.
Where n is the number of electrons transferred, F, the Faraday constant, A, electrode area, Do, the diffusion coefficient, v, the kinematic viscosity of the solution and C*, the bulk concentration of the reactants. For n = 2, an active electrode area of 0.1925 cm^2, and a kinematic viscosity of the electrolyte of 0.01 cm^2 s^-1, we were able to evalulate the diffusion coefficient from the slope of the straight line plots in FIG. 11D.
To determine the kinetic parameters for the charge-transfer process, namely the rate constant and the apparent transfer coeffcient, the logarithm of the kinetic current (after correction for mass-transport losses) was plotted against the observed overpotentials greater than 100 mV, where the Tafel equation is applicable (Eq. 4 and FIG. 11E).
Where I is the current, Ilim is the limiting current, Iex is the exchange current density, Co and CR are the concentration of the oxidized and reduced species at the surface of the electrode, Co* and CR* are the bulk concentrations of the oxidized and reduced species, α is the transfer coefficient, n is the number of electrons transferred, F is the Faraday constant, E-Erev is the overpotential, R is the gas constant, and T is the temperature. The rate constant, ko , was obtained from the exchange current density (Eq. 5).
Where n is the number of electrons transferred, F, the Faraday constant, A, electrode area, Do, the diffusion coefficient, v, the kinematic viscosity of the solution and C*, the bulk concentration of the reactants. For n = 2, an active electrode area of 0.1925 cm^2, and a kinematic viscosity of the electrolyte of 0.01 cm^2 s^-1, we were able to evalulate the diffusion coefficient from the slope of the straight line plots.
To determine the kinetic parameters for the charge-transfer process, namely the rate constant and the apparent transfer coeffcient, the logarithm of the kinetic current (after correction for mass-transport losses) was plotted against the observed overpotentials greater than 100 mV, where the Tafel equation derived from the Butler-Volmer Equation is applicable : […]
Where I is the current, Ilim is the limiting current, Iex is the exchange current density, Co and CR are the concentration of the oxidized and reduced species at the surface of the electrode, Co* and CR* are the bulk concentrations of the oxidized and reduced species, α is the transfer coefficient, n is the number of electrons transferred, F is the Faraday constant, E-Erev is the overpotential, R is the gas constant, and T is the temperature. The rate constant, ko , was obtained from the exchange current density using the relationship

A short description of data set [4]: Cyclic voltammetry in 1 M potassium hydroxide. It counts as physicochemical.
Data set [5] is described as follows: Charge/discharge cycling of full ORBAT flow cells. As to conditions: 25 cm^2 flow cell, 0.2 M solutions, 1 M sulfuric acid, at least 12 cycles. An excerpt:
A flow cell was constructed using fuel cell hardware that has graphite end plates (Electrochem Inc.) and an electrode active area of 25 cm^2. The reactant was circulated using peristaltic pumps (Masterflex) at a flow rate of approximately 0.5-1.0 liter min^-1. Membrane electrode assemblies (MEA) needed for the cell were fabricated in house using procedures similar to those previously reported for direct methanol fuel cells. (G. K. S. Prakash, M. C. Smart, Q. J. Wang, A. Atti, V. Pleynet, B. Yang, K. McGrath, G. A. Olah, S. R. Narayanan, W. Chun, T. Valdez, S. Surampudi, J. Fluorine Chemistry, 125, 1217 (2004); the entire disclosure of which is hereby incorporated by reference). Specifically, two sheets of carbon paper (Toray 030- non-teflonized) were coated with an ink containing 0.1 g of Vulcan XC-72 carbon black and 0.3 g of NAFION®. The coated electrodes were hot pressed with a NAFION® 117 membrane to form a MEA. All full cell experiments were carried out at 23° C. Two glass containers served as reservoirs for the solutions of the redox couples. An argon flow was maintained above these solutions to avoid reaction of the redox couples with oxygen. The current-voltage characteristics of the cells were measured at various states of charge. Charge/discharge studies were carried out under constant current conditions. […]

Consider `O=C1C=CC=CC1=O` [1,2-benzoquinone (ortho), 1,2-benzoquinone], for which the “electrode potential higher relative to 1,4-benzoquinone (para-quinone)” value in data set [1] is “approximately 85 mV”. For the same molecule, in data set [2], the “Electrode Potential vs. NHE, V” value is 0.786 V.

Turning to `O=C1c2ccc(S(=O)(=O)O)cc2C(=O)c2ccc(S(=O)(=O)O)cc21` [Anthraquinone 2,6-disulfonic acid, anthraquinone-2,6-disulfonic acid], in data set [3] (1 M sulfuric acid), the “Standard Reduction Potentials: E°(formal) Measured” value is reported as 0.19. Besides, the “kinetic reversibility from cyclic voltammograms” value in data set [3] (1 M sulfuric acid, glassy carbon) was “less kinetically reversible than AQS”. Also, the “Diffusion Coefficient, (cm^2 s^-1)” value in data set [3] (Table 5, 1 M sulfuric acid, Levich plot) came out at 3.40E-6 cm^2 s^-1. Also, the “E½ vs. MSE, Volt” value is given as -0.60 Volt in data set [3] (Table 5, MSE E°=+0.65 V, 1 M sulfuric acid) and -0.58 Volt in data set [3] (Table 7, 1 M sulfuric acid). Further, the “Transfer Coefficient, an” value in data set [3] (Table 5, Tafel analysis) is reported as 0.426. In addition, the “Exchange Current Density, (A cm^-2)” value in data set [3] (Table 5, glassy carbon RDE, 1 M sulfuric acid) stood at 2.97E-6 A cm^-2. Also, in data set [3] (Table 5, obtained from exchange current density), the “Rate Constant, k°” value was 0.000152 cm/s. Further, the “Diffusion Coefficient (cm2/sec)” value in data set [3] (Table 7) is given as 4.04E-6 cm2/sec. The “Exchange Current density (A/cm^2)” value in data set [3] (Table 7) was 1.81E-6 A/cm^2. Further, the “Standard Reduction Potentials: Experimental (E½ values) vs. NHE” value in data set [3] (vs. NHE, 1 M sulfuric acid) is on record as 0.05. Further, the “reversible peak potential vs. MMO” value in data set [4] is on record as “about -0.35 V”. The “charge-discharge cycling stability (capacity change)” value in data set [5] is given as “charge-discharge cycling stability similar to AQS”. Besides, the solubility is 500 mM (≈ 184 mg/mL) in the data set “Solubility” (Solubility, Table 5) and roughly 500 mM (≈ 184 mg/mL) in the data set “Solubility” (water, aqueous solubility limit, aqueous).
